Assays:
Assay in all cases: relative viability (nuclei count vs DMSO), 5 days (fraction); higher = more cells survive
NCI-H1666 = system: NCI-H1666
Outline: (§1)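 Relative viability is defined as nuclei in treated wells over nuclei in vehicle wells. Duplicate plates were run and medians reported. Lung cancer cell lines in 1536-well plates were dosed by pin tool one day after seeding, with one drug or with a fixed anchor-drug dose plus five library-drug doses (not always all listed) in √10 steps, and nuclei were counted after 5 days.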

H3255 = system: H3255
Outline: as §1

NCI-H1755 = system: NCI-H1755
Outline: as §1

NCI-H1650 = system: NCI-H1650
Outline: as §1

A-427 = system: A-427
Outline: as §1

ChaGo-K-1 = system: ChaGo-K-1
Outline: as §1

NCI-H838 = system: NCI-H838
Outline: as §1

NCI-H2228 = system: NCI-H2228
Outline: as §1

SW 1573 = system: SW 1573
Outline: as §1

NCI-H1944 = system: NCI-H1944
Outline: as §1

NCI-H520 = system: NCI-H520
Outline: as §1

O=C(O)CCCCC(CCSCc1ccccc1)SCc1ccccc1 (centres undefined) [CPI-613] + CC(=O)c1c(C)c2cnc(Nc3ccc(N4CCNCC4)cn3)nc2n(C2CCCC2)c1=O [Palbociclib] (partner 0.5 µM)
relative viability (NCI-H1666; first compound 5 µM): 0.68 | relative viability (NCI-H1666; first compound 15.81 µM): 0.577 | relative viability (NCI-H1666; first compound 50 µM): 0.574 | relative viability (NCI-H1666; first compound 158.11 µM): 0.469 | relative viability (NCI-H1666; first compound 500 µM): 0.425 | relative viability (H3255; first compound 5 µM): 0.296 | relative viability (H3255; first compound 15.81 µM): 0.302 | relative viability (H3255; first compound 50 µM): 0.339 | relative viability (H3255; first compound 158.11 µM): 0.328 | relative viability (H3255; first compound 500 µM): 0.302 | relative viability (NCI-H1755; first compound 5 µM): 0.513 | relative viability (NCI-H1755; first compound 15.81 µM): 0.432 | relative viability (NCI-H1755; first compound 50 µM): 0.454 | relative viability (NCI-H1755; first compound 158.11 µM): 0.448 | relative viability (NCI-H1755; first compound 500 µM): 0.393 | relative viability (NCI-H1650; first compound 5 µM): 0.326 | relative viability (NCI-H1650; first compound 15.81 µM): 0.276 | relative viability (NCI-H1650; first compound 50 µM): 0.317 | relative viability (NCI-H1650; first compound 158.11 µM): 0.0807 | relative viability (NCI-H1650; first compound 500 µM): 0.0173 | relative viability (A-427; first compound 5 µM): 0.519 | relative viability (A-427; first compound 15.81 µM): 0.477 | relative viability (A-427; first compound 50 µM): 0.486 | relative viability (A-427; first compound 158.11 µM): 0.332 | relative viability (A-427; first compound 500 µM): 0.384 | relative viability (ChaGo-K-1; first compound 5 µM): 0.868 | relative viability (ChaGo-K-1; first compound 15.81 µM): 0.902 | relative viability (ChaGo-K-1; first compound 50 µM): 0.842 | relative viability (ChaGo-K-1; first compound 158.11 µM): 0.339 | relative viability (ChaGo-K-1; first compound 500 µM): 0.419 | relative viability (NCI-H838; first compound 5 µM): 0.21 | relative viability (NCI-H838; first compound 15.81 µM): 0.189 | relative viability (NCI-H838; first compound 50 µM): 0.216 | relative viability (NCI-H838; first compound 158.11 µM): 0.139 | relative viability (NCI-H838; first compound 500 µM): 0.0859 | relative viability (NCI-H2228; first compound 5 µM): 0.693 | relative viability (NCI-H2228; first compound 15.81 µM): 0.622 | relative viability (NCI-H2228; first compound 50 µM): 0.679 | relative viability (NCI-H2228; first compound 158.11 µM): 0.45 | relative viability (NCI-H2228; first compound 500 µM): 0.0679 | relative viability (SW 1573; first compound 5 µM): 0.336 | relative viability (SW 1573; first compound 15.81 µM): 0.579 | relative viability (SW 1573; first compound 50 µM): 0.384 | relative viability (SW 1573; first compound 158.11 µM): 0.0841 | relative viability (SW 1573; first compound 500 µM): 0.056 | relative viability (NCI-H1944; first compound 5 µM): 0.331 | relative viability (NCI-H1944; first compound 15.81 µM): 0.312 | relative viability (NCI-H1944; first compound 50 µM): 0.335 | relative viability (NCI-H1944; first compound 158.11 µM): 0.259 | relative viability (NCI-H1944; first compound 500 µM): 0.26 | relative viability (NCI-H520; first compound 5 µM): 0.225 | relative viability (NCI-H520; first compound 15.81 µM): 0.2 | relative viability (NCI-H520; first compound 50 µM): 0.169 | relative viability (NCI-H520; first compound 158.11 µM): 0.119
